Measured values from patent US4931437A, “8-azaxanthine derivatives, and pharmaceutical compositions containing them” (Malesci Istituto Farmacobiologico S.p.A., priority 1986, dated 1990).
Where two headings read alike, the source gives them in different places.

Key:
[1] = Acute toxicity (oral LD50); design: species or system male Swiss mice; conditions: in vivo, mouse, deaths in ten days, Litchfield and Wilcoxon, limits in parentheses, max dose generally 500 mg/Kg, read-out: DL/50 (mouse os)
Procedure: LD50 was calculated according to Litchfield and Wilcoxon method (J. Pharm. Expt. Ther. 96, 99; 1949). The maximum dose administered was generally 500 mg/Kg.

bronchospasm = experiment: Antibronchospastic activity (aerosol ovalbumin, sensitized guinea pigs, oral); format: in vivo, guinea pig; conditions: for Oral antibronchospastic activity (aerosol ovalbumin guinea-pig) A.U.C. 0 → 3h Index: ratio between equieffective doses of theophylline and tested compound, AUC of % inhibition 0-3 h
Procedure: Fasted (16 h) male and female guinea pigs were sensitized by ovalbumin (25 mg/Kg. s.c. and 25 mg/Kg. i.p.) (Herxheimer and Stresemann--Arch. It. Pharmacodyn. Ther. 125.126; 1960). After two weeks, animals were challenged, by an aerosol of 0.5% ovalbumin recording the latency time (T1) of the first bronchospasm. A week later, the test was repeated in the same animals 1-3 hours after drug administration (T2). % of inhibition was determined as [formula] where T1 was control latency time, T2 was latency time after drug administration. […] The area under curve (AUC) expressing the % inhibition plotted toward time (0-3 h) after drug dosing, was calculated.

[2] = tested on: heart rate and blood pressure; conditions: in vivo, po
Procedure: Fasted (16 h) normotensive male Wistar rats weighing 300-380 g. were used. The animals were prewarmed by means of infrared lamp for 15 min. before recording blood pressure and heart rate with the tale-cuff method (Maffii G. e Coll.--Arch. It. Sci. Farm. 12, 3; 1962). Recording were performed before and 30'-90'--3 h after oral drug administration. […] The % increase in heart rate was plotted against the log dose. […] In table 2 the average value of the indexes was reported.

[3] = Effects on CNS: cardiazole (CZ) induced convulsions; conditions: mouse, in vivo, po
Procedure: (§1) Fasted (20 h) male Swiss mice (20 g b.w.) received orally the compounds 1 h before cardiazole (CZ) or chlordiazepoxide (CDO) administration.
CZ was injected i.p. in a fully convulsive dose which produced death in about 10% of animals (60-100 mg/Kg.). Appropriate dose was determined before each experimental session.
(§2) In the untreated animals, CDO 100 mg/Kg i.p. induced sleep lasting 20-30 min. Sleeping time was defined as the time elapsing from the loss to the recovery of the righting reflex. Pretreated animals were observed up to a maximum of 6 h.

[4] = Effects on CNS: sleeping time following chlordiazepoxide (CDO) treatment; conditions: mouse, in vivo, po
Procedure: as §1, §2

Row | Compound | LD50 at 240 h [1] | Oral antibronchospastic activity (aerosol ovalbumin guinea-pig) A.U.C. 0 → 3h Index (bronchospasm) | Tachycardic effects (rat os) Index [2] | further results
1 | CCCn1c(=O)c2c(nnn2CCN2CCCCC2)n(-c2ccccc2)c1=O [MX82103] | 910 µmol/kg | 1,7 | 0 | –
2 | CCC(C)Cn1c(=O)[nH]c(=O)c2nn(CCN(CC)CC)nc21 (centres unmarked) [MX82109] | > 1550 µmol/kg | 1,1 | 0,3 | –
3 | CCC(C)Cn1c(=O)[nH]c(=O)c2c1nnn2CCN(CC)CC (centres unmarked) [MX82108] | > 1550 µmol/kg | 1,3 | 0 | –
4 | CCCn1c(=O)c2nn(CCN3CCCCC3)nc2n(-c2ccccc2)c1=O [MX82104] | 1310 µmol/kg | 2,1 | 0 | –
5 | CCCn1c(=O)c2nn(CCN3CCOCC3)nc2n(-c2ccccc2)c1=O [MX82106, 1-n-propyl-3-phenyl-8-(2-morpholinoethyl)-8-azaxanthine] | > 1300 µmol/kg | 2,9 | 0 | –
6 | CCCn1c(=O)c2nn(CCN(C)C)nc2n(CC(C)CC)c1=O (centres unmarked) [MX8272] | 1370 µmol/kg | 2,1 | 0 | –
7 | CCCn1c(=O)c2nn(CCN(CC)CC)nc2n(-c2ccccc2)c1=O [MX8258] | > 1350 µmol/kg | 1,6 | 0 | –
8 | CCCn1c(=O)c2c(nnn2CCN2CCOCC2)n(-c2ccccc2)c1=O [MX82105, 1-n-propyl-3-phenyl-7-(2-morpholinoethyl)-8-azaxanthine] | > 1300 µmol/kg | 2,4 | 0 | –
9 | CCCn1c(=O)c2c(nnn2CCN(CC)CC)n(-c2ccccc2)c1=O [MX8257] | > 1350 µmol/kg | 1,8 | 0 | –
10 | Cn1c(=O)c2[nH]cnc2n(C)c1=O [THEOPHYLLINE, 1.3-dimethylxanthine, reference compound] | – | – | – | ED50 (bronchospasm; Cavia porcellus, po, guinea pig, 0.5% ovalbumin aerosol, read-out: ED50, inhibition of bronchoconstriction): 250 µmol/kg; blood pressure effect ([2]; rat): slight hypotension; heart rate effect ([2]; rat): marked dose-dependent tachycardia; dosage producing a 30% increase in heart rate ([2]; rat, 30 min): 0.21 mmol/kg; dosage producing a 30% increase in heart rate ([2]; rat, 90 min): 0.36 mmol/kg; dosage producing a 30% increase in heart rate ([2]; rat, 180 min): 0.57 mmol/kg; ED50 [3]: 150 µmol/kg; ED50 [4]: 75 µmol/kg
11 | CCCn1c(=O)c2c(nnn2CCN(C)C)n(CC(C)CC)c1=O (centres unmarked) [MX8271] | > 1480 µmol/kg | 1,9 | 0 | –
